Assay results from US20240158412A1 (Faxian Therapeutics, LLC, priority 2021, published 2024).

Target: USP7 (Homo sapiens, UniProt Q93009)
Experiment: biochemical
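Further: fluorescence intensity readout of USP7 enzymatic activity, reaction incubated 90 min at room temperature.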

Chain of USP7 (Q93009 whole entry): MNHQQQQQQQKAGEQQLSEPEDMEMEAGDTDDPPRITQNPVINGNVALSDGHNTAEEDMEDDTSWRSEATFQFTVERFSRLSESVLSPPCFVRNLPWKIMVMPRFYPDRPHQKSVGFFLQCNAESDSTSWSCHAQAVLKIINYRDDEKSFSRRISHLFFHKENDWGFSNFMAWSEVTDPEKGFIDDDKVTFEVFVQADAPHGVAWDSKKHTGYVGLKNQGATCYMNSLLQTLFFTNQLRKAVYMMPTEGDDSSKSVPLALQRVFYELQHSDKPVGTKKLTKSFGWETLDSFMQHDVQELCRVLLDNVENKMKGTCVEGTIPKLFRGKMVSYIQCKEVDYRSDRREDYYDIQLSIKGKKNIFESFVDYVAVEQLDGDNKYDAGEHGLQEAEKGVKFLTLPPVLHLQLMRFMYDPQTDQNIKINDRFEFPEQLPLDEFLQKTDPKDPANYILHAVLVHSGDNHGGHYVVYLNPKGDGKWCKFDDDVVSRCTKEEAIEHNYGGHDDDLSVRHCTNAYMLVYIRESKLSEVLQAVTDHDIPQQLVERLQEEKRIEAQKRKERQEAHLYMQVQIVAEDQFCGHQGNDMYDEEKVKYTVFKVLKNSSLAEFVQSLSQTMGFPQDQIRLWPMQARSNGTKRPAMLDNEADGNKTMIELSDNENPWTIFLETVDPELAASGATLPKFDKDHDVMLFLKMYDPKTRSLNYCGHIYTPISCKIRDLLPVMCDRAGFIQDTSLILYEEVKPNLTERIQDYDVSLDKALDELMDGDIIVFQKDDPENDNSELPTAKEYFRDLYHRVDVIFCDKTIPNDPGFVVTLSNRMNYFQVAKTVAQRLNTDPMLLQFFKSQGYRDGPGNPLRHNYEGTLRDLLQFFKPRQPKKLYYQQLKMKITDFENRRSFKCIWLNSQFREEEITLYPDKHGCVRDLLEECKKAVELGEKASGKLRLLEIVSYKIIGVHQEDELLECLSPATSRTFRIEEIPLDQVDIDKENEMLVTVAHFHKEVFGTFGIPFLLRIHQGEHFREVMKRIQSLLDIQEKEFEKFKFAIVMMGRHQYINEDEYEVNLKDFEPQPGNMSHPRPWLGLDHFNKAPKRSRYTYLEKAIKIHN

SMILES | IC50 [nM]
Cc1cnn(Cc2cc3nccc(-c4cc(Cl)cc5c4N(C4CNC4)CCC5)c3s2)c(=O)c1 [Example 22, 2-[[7-[1-(azetidin-3-yl)-6-chloro-3,4-dihydro-2H-quinolin-8-yl]thieno[3,2-b]pyridin-2-yl]methyl]-5-methyl-pyridazin-3-one] | 10 to 100
COC[C@@]1(C)C[C@H](N2CCCc3cc(Cl)cc(-c4ccnc5cc(CN6C(=O)CCC6=O)sc45)c32)CN1 [Example 200, 1-((7-(6-chloro-1-((3S,5R)-5-(methoxymethyl)-5-methylpyrrolidin-3-yl)-1,2,3,4-tetrahydroquinolin-8-yl)thieno[3,2-b]pyridin-2-yl)methyl)pyrrolidine-2,5-dione] | 10 to 100
O=C1CCC(=O)N1Cc1cc2nccc(-c3cc(Cl)cc4c3N(CC3CCNCC3)CCC4)c2s1 [Example 49, 1-[[7-[6-chloro-1-(4-piperidylmethyl)-3,4-dihydro-2H-quinolin-8-yl]thieno[3,2-b]pyridin-2-yl]methyl]pyrrolidine-2,5-dione] | 101 to 1000
O=C1C2CC2C(=O)N1Cc1cc2nccc(-c3cc(Cl)cc4c3N([C@@H]3CN[C@@H](CO)C3)CCO4)c2s1 (stereo partly drawn) [Example 214, 3-((7-(7-chloro-4-((3S,5R)-5-(hydroxymethyl)pyrrolidin-3-yl)-3,4-dihydro-2H-benzo[b][1,4]oxazin-5-yl)thieno[3,2-b]pyridin-2-yl)methyl)-3-azabicyclo[3.1.0]hexane-2,4-dione] | < 10
N#CC1(CN2CC(N3CCCc4cc(Cl)cc(-c5ccnc6cc(CN7C(=O)CCC7=O)sc56)c43)C2)CC1 [Example 12, 1-((3-(6-chloro-8-(2-((2,5-dioxopyrrolidin-1-yl)methyl)thieno[3,2-b]pyridin-7-yl)-3,4-dihydroquinolin-1(2H)-yl)azetidin-1-yl)methyl)cyclopropanecarbonitrile] | 101 to 1000
CC1(C)C[C@H](N2CCCc3cc(C#N)cc(-c4ccnc5cc(CN6C(=O)CCCC6=O)sc45)c32)CN1 [Example 130, (S)-1-(5,5-dimethylpyrrolidin-3-yl)-8-(2-((2,6-dioxopiperidin-1-yl)methyl)thieno[3,2-b]pyridin-7-yl)-1,2,3,4-tetrahydroquinoline-6-carbonitrile] | < 10
CC1(C)C[C@H](N2CCCc3cc(C#N)cc(-c4ccnc5cc(CN6C(=O)CN(C7CC7)C6=O)sc45)c32)CN1 [Example 131, (S)-8-(2-((3-cyclopropyl-2,5-dioxoimidazolidin-1-yl)methyl)thieno[3,2-b]pyridin-7-yl)-1-(5,5-dimethylpyrrolidin-3-yl)-1,2,3,4-tetrahydroquinoline-6-carbonitrile] | < 10
CN1CC2(CC(N3CCCc4cc(Cl)cc(-c5ccnc6cc(CN7C(=O)CCC7=O)sc56)c43)C2)C1 [Example 138, 1-[[7-[6-chloro-1-(2-methyl-2-azaspiro[3.3]heptan-6-yl)-3,4-dihydro-2H-quinolin-8-yl]thieno[3,2-b]pyridin-2-yl]methyl]pyrrolidine-2,5-dione] | 10 to 100
CC(F)(F)CCn1ccc(=O)n(Cc2cc3nccc(-c4cc(Cl)cc5c4N([C@H]4CCNC4)CCC5)c3s2)c1=O [Example 104, (S)-3-((7-(6-chloro-1-(pyrrolidin-3-yl)-1,2,3,4-tetrahydroquinolin-8-yl)thieno[3,2-b]pyridin-2-yl)methyl)-1-(3,3-difluorobutyl)pyrimidine-2,4(1H,3H)-dione] | < 10
C[C@@H]1CCc2cc(Cl)cc(-c3ccnc4cc(CN5C(=O)CCC5=O)sc34)c2N1[C@@H]1CCNC1 (single isomer, unassigned) [Example 44c] | 10 to 100
O=C1CCC(=O)N1Cc1cc2nccc(-c3cc(Cl)cc4c3N([C@@H]3CCNC3)CC3CC43)c2s1 (single isomer, unassigned) [Example 113a] | 101 to 1000
CC1(C)C[C@H](N2CCCc3cc(C#N)cc(-c4ccnc5cc(CN6C(=O)CN(C7CC(F)(F)C7)C6=O)sc45)c32)CN1 [Example 127, (S)-8-(2-((3-(3,3-difluorocyclobutyl)-2,5-dioxoimidazolidin-1-yl)methyl)thieno[3,2-b]pyridin-7-yl)-1-(5,5-dimethylpyrrolidin-3-yl)-1,2,3,4-tetrahydroquinoline-6-carbonitrile] | < 10
O=c1ccn(CC(F)(F)F)c(=O)n1Cc1cc2nccc(-c3cc(Cl)cc4c3N([C@H]3CCNC3)CCC4)c2s1 [Example 55, (S)-3-((7-(6-chloro-1-(pyrrolidin-3-yl)-1,2,3,4-tetrahydroquinolin-8-yl)thieno[3,2-b]pyridin-2-yl)methyl)-1-(2,2,2-trifluoroethyl)pyrimidine-2,4(1H,3H)-dione] | < 10
